This is an account of results in US12091405B2, “Substituted pyrazole compounds as indoleamine 2,3-dioxygenase inhibitors” (Merck Sharp & Dohme LLC, priority 2018, dated 2024).

One may read the IC50 as the midpoint of a concentration-inhibition curve.

Molecules are shown by their SMILES.

The test has as its target IDO1 (Homo sapiens, UniProt P14902). Kind of test: IDO1 Cellular Assay in HeLa Cells Stimulated with IFNγ. Type of test: cell-based. To be noted: IFNγ 100 ng/mL, 300 uM L-tryptophan, about 48 hours, fluorescence readout, read-out: IDO1 HELA Cell Assay, IC50.

Sequence of IDO1 (P14902 whole entry): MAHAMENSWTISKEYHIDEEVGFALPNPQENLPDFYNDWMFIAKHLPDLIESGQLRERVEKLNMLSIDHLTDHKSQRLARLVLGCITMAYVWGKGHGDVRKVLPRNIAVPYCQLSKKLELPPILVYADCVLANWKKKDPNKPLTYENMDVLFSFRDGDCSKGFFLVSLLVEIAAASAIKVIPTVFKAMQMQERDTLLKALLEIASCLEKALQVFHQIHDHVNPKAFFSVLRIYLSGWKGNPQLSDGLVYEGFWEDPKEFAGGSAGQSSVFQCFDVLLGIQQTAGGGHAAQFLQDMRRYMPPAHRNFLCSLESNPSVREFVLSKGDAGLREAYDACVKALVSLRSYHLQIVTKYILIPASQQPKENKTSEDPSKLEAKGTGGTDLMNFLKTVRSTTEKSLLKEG

For the compound `C[C@@H]1CN(C(=O)c2nn(CC(=O)N3CCC(c4cccc5c4CCC5)CC3)c3c2CCC3)C[C@H](C)O1` [Example 86, 1-[4-(2,3-dihydro-1H-inden-4-yl)piperidin-1-yl]-2-{3-[(2R,6S)-2,6-dimethylmorpholine-4-carbonyl]-5,6-dihydrocyclopenta[c]pyrazol-1(4H)-yl}ethan-1-one], the IC50 was found to be 7.3 nM.

In the case of `Cc1ccc(C2CCN(C(=O)Cn3nc(C(=O)N4C[C@@H](C)O[C@@H](C)C4)c4c3CCC4)CC2)cc1` [Example 127, 2-{3-[(2R,6S)-2,6-dimethylmorpholine-4-carbonyl]-5,6-dihydrocyclopenta[c]pyrazol-1(4H)-yl}-1-[4-(4-methylphenyl)piperidin-1-yl]ethan-1-one], the IC50 amounted to 61.1 nM.

For the compound `CC(=O)NC1CCN(C(=O)c2nn(CC(=O)N3CCC(F)(c4cccc(C)c4C)CC3)c3c2[C@@H]2C[C@@H]2C3)CC1` [Example 12, N-(1-((3bR,4aR)-1-(2-(4-(2,3-dimethylphenyl)-4-fluoropiperidin-1-yl)-2-oxoethyl)-3b,4,4a,5-tetrahydro-1H-cyclopropa[3,4]cyclopenta[1,2-c]pyrazole-3-carbonyl)piperidin-4-yl)acetamide], the IC50 was determined as 2.1 nM.

In the case of `Cc1cccc(C2(F)CCN(C(=O)Cn3nc(C(=O)N4CCC(N)CC4)c4c3C[C@H]3C[C@@H]43)CC2)c1C` [Example 13, 2-((3bR,4aR)-3-(4-aminopiperidine-1-carbonyl)-3b,4,4a,5-tetrahydro-1H-cyclopropa[3,4]cyclopenta[1,2-c]pyrazol-1-yl)-1-(4-(2,3-dimethylphenyl)-4-fluoropiperidin-1-yl)ethanone], the half-maximal inhibitory concentration (IC50) worked out at 90.4 nM.

Turning to `C[C@@H]1CN(C(=O)c2nn(CC(=O)N3CCC(c4cccc(OC(F)(F)F)c4)CC3)c3c2CCC3)C[C@H](C)O1` [Example 160, 2-{3-[(2R,6S)-2,6-dimethylmorpholine-4-carbonyl]-5,6-dihydrocyclopenta[c]pyrazol-1(4H)-yl}-1-{4-[3-(trifluoromethoxy)phenyl]piperidin-1-yl}ethan-1-one], the IC50 was determined as 162 nM.

Regarding `Cc1cc(F)ccc1C1CCN(C(=O)Cn2nc(C(=O)N3CC[C@H](O)[C@@H](F)C3)c3c2CCC3)CC1` [Example 52, 1-(4-(4-fluoro-2-methylphenyl)piperidin-1-yl)-2-(3-((3S,4S)-3-fluoro-4-hydroxypiperidine-1-carbonyl)-5,6-dihydrocyclopenta[c]pyrazol-1(4H)-yl)ethanone], the IC50 stood at 111 nM.

Take `C[C@@H]1CN(C(=O)c2nn(CC(=O)N3CCC(c4ccc(C(F)F)cc4F)CC3)c3c2CCC3)C[C@H](C)O1` [Example 142, 1-{4-[4-(difluoromethyl)-2-fluorophenyl]piperidin-1-yl}-2-{3-[(2R,6S)-2,6-dimethylmorpholine-4-carbonyl]-5,6-dihydrocyclopenta[c]pyrazol-1(4H)-yl}ethan-1-one]: the half-maximal inhibitory concentration (IC50) was determined as 99.5 nM.

In the case of `COc1c(C)cc(C2CCN(C(=O)Cn3nc(C(=O)N4C[C@@H](C)O[C@@H](C)C4)c4c3CCC4)CC2)cc1C` [Example 102, 2-{3-[(2R,6S)-2,6-dimethylmorpholine-4-carbonyl]-5,6-dihydrocyclopenta[c]pyrazol-1(4H)-yl}-1-[4-(4-methoxy-3,5-dimethylphenyl)piperidin-1-yl]ethan-1-one], the half-maximal inhibitory concentration (IC50) is 28.9 nM.

On to `C[C@@H]1CN(C(=O)c2nn(CC(=O)N3CCC(c4cc(F)c(F)cc4Cl)CC3)c3c2CCC3)C[C@H](C)O1` [Example 154, 1-[4-(2-chloro-4,5-difluorophenyl)piperidin-1-yl]-2-{3-[(2R,6S)-2,6-dimethylmorpholine-4-carbonyl]-5,6-dihydrocyclopenta[c]pyrazol-1(4H)-yl}ethan-1-one], for which the 50% inhibitory concentration (IC50) stood at 142 nM.

Take `C[C@@H]1CN(C(=O)c2nn(CC(=O)N3CCC(c4ccc(C5CC5)cc4)CC3)c3c2CCC3)C[C@H](C)O1` [Example 131, 1-[4-(4-cyclopropylphenyl)piperidin-1-yl]-2-{3-[(2R,6S)-2,6-dimethylmorpholine-4-carbonyl]-5,6-dihydrocyclopenta[c]pyrazol-1(4H)-yl}ethan-1-one]: the half-maximal inhibitory concentration (IC50) was 77.9 nM.

On to `C[C@@H]1CN(C(=O)c2nn(CC(=O)N3CCC(c4cc(F)cc(F)c4F)CC3)c3c2CCC3)C[C@H](C)O1` [Example 117, 2-{3-[(2R,6S)-2,6-dimethylmorpholine-4-carbonyl]-5,6-dihydrocyclopenta[c]pyrazol-1(4H)-yl}-1-[4-(2,3,5-trifluorophenyl)piperidin-1-yl]ethan-1-one], for which the 50% inhibitory concentration (IC50) amounted to 48.9 nM.

As to `C[C@@H]1CN(C(=O)c2nn(CC(=O)N3CCC(c4cc(F)cc(F)c4)CC3)c3c2CCC3)C[C@H](C)O1` [Example 67, 1-[4-(3,5-difluorophenyl)piperidin-1-yl]-2-{3-[(2R,6S)-2,6-dimethylmorpholine-4-carbonyl]-5,6-dihydrocyclopenta[c]pyrazol-1(4H)-yl}ethan-1-one], the IC50 worked out at 52.4 nM.

As to `Cc1ccc(C2CCN(C(=O)Cn3nc(C(=O)N4C[C@@H](C)O[C@@H](C)C4)c4c3CCC4)CC2)cc1C` [Example 89, 2-{3-[(2R,6S)-2,6-dimethylmorpholine-4-carbonyl]-5,6-dihydrocyclopenta[c]pyrazol-1(4H)-yl}-1-[4-(3,4-dimethylphenyl)piperidin-1-yl]ethan-1-one], the half-maximal inhibitory concentration (IC50) was 8.8 nM.

In the case of `C[C@@H]1CN(C(=O)c2nn(CC(=O)N3CCC(C4CCCCC4)CC3)c3c2CCC3)C[C@H](C)O1` [Example 30, 1-(4-cyclohexylpiperidin-1-yl)-2-{3-[(2R,6S)-2,6-dimethylmorpholine-4-carbonyl]-5,6-dihydrocyclopenta[c]pyrazol-1(4H)-yl}ethan-1-one], the IC50 was 299 nM.

`Cc1c(C#N)cccc1C1CCN(C(=O)Cn2nc(C(=O)N3C[C@@H](C)O[C@@H](C)C3)c3c2CCC3)CC1` [Example 129, 3-[1-({3-[(2R,6S)-2,6-dimethylmorpholine-4-carbonyl]-5,6-dihydrocyclopenta[c]pyrazol-1(4H)-yl}acetyl)piperidin-4-yl]-2-methylbenzonitrile]: the 50% inhibitory concentration (IC50) was determined as 64.1 nM.

Regarding `COc1ccc(F)c(C2CCN(C(=O)Cn3nc(C(=O)N4C[C@@H](C)O[C@@H](C)C4)c4c3CCC4)CC2)c1` [Example 156, 2-{3-[(2R,6S)-2,6-dimethylmorpholine-4-carbonyl]-5,6-dihydrocyclopenta[c]pyrazol-1(4H)-yl}-1-[4-(2-fluoro-5-methoxyphenyl)piperidin-1-yl]ethan-1-one], the IC50 turned out to be 149 nM.

With `Cc1ccc(C2CCN(C(=O)Cn3nc(C(=O)N4C[C@@H](C)O[C@@H](C)C4)c4c3CCC4)CC2)cc1Cl` [Example 111, 1-[4-(3-chloro-4-methylphenyl)piperidin-1-yl]-2-{3-[(2R,6S)-2,6-dimethylmorpholine-4-carbonyl]-5,6-dihydrocyclopenta[c]pyrazol-1(4H)-yl}ethan-1-one], the 50% inhibitory concentration (IC50) was determined as 40.3 nM.

Consider `C[C@@H]1CN(C(=O)c2nn(CC(=O)N3CCC(c4ccc(F)c(F)c4F)CC3)c3c2CCC3)C[C@H](C)O1` [Example 128, 2-{3-[(2R,6S)-2,6-dimethylmorpholine-4-carbonyl]-5,6-dihydrocyclopenta[c]pyrazol-1(4H)-yl}-1-[4-(2,3,4-trifluorophenyl)piperidin-1-yl]ethan-1-one], for which the half-inhibitory concentration (IC50) is 64.1 nM.

As to `Cc1cccc(C2CCN(C(=O)Cn3nc(C(=O)N4CC[C@@H](O)[C@H](C)C4)c4c3CCC4)CC2)c1C` [Example 39, 1-(4-(2,3-dimethylphenyl)piperidin-1-yl)-2-(3-((3R,4R)-4-hydroxy-3-methylpiperidine-1-carbonyl)-5,6-dihydrocyclopenta[c]pyrazol-1(4H)-yl)ethan-1-one], the half-inhibitory concentration (IC50) stood at 1.9 nM.

With `Cc1c(C2CCN(C(=O)Cn3nc(C(=O)N4CCC(O)(CF)CC4)c4c3C[C@H]3C[C@@H]43)CC2)cccc1C(F)(F)F` [Example 1, 2-((3bR,4aR)-3-(4-(fluoromethyl)-4-hydroxypiperidine-1-carbonyl)-3b,4,4a,5-tetrahydro-1H-cyclopropa[3,4]cyclopenta[1,2-c]pyrazol-1-yl)-1-(4-(2-methyl-3-(trifluoromethyl)phenyl)piperidin-1-yl)ethanone], the IC50 is 0.8 nM.

For `C[C@@H]1CN(C(=O)c2nn(CC(=O)N3CCC(F)(c4ccccc4)CC3)c3c2CCC3)C[C@H](C)O1` [Example 63, 2-[3-[(2R,6S)-2,6-dimethylmorpholine-4-carbonyl]-5,6-dihydro-4H-cyclopenta[c]pyrazol-1-yl]-1-(4-fluoro-4-phenyl-1-piperidyl)ethanone], the IC50 came to 296 nM.

For the compound `C[C@@H]1CN(C(=O)c2nn(CC(=O)N3CCC(c4ccc(F)cc4Cl)CC3)c3c2CCC3)C[C@H](C)O1` [Example 124, 1-[4-(2-chloro-4-fluorophenyl)piperidin-1-yl]-2-{3-[(2R,6S)-2,6-dimethylmorpholine-4-carbonyl]-5,6-dihydrocyclopenta[c]pyrazol-1(4H)-yl}ethan-1-one], the IC50 turned out to be 57 nM.

With `Cc1cc(C2CCN(C(=O)Cn3nc(C(=O)N4C[C@@H](C)O[C@@H](C)C4)c4c3CCC4)CC2)ccc1F` [Example 94, 2-{3-[(2R,6S)-2,6-dimethylmorpholine-4-carbonyl]-5,6-dihydrocyclopenta[c]pyrazol-1(4H)-yl}-1-[4-(4-fluoro-3-methylphenyl)piperidin-1-yl]ethan-1-one], the concentration for half-maximal inhibition (IC50) came out at 18.9 nM.

For `C[C@@H]1CN(C(=O)c2nn(CC(=O)N3CCC(c4cccc(F)c4Cl)CC3)c3c2CCC3)C[C@H](C)O1` [Example 97, 1-[4-(2-chloro-3-fluorophenyl)piperidin-1-yl]-2-{3-[(2R,6S)-2,6-dimethylmorpholine-4-carbonyl]-5,6-dihydrocyclopenta[c]pyrazol-1(4H)-yl}ethan-1-one], the IC50 was 24.1 nM.

On to `Cc1cccc(C2CCN(C(=O)Cn3nc(C(=O)N4CC[C@H](O)[C@@H](F)C4)c4c3C[C@H]3C[C@@H]43)CC2)c1C` [Example 23, 1-[4-(2,3-dimethylphenyl)piperidin-1-yl]-2-{(3bR,4aR)-3-[(3S,4S)-3-fluoro-4-hydroxypiperidine-1-carbonyl]-3b,4,4a,5-tetrahydro-1H-cyclopropa[3,4]cyclopenta[1,2-c]pyrazol-1-yl}ethan-1-one], for which the IC50 was found to be 1.1 nM.
